Source: PMC4642645, “Oxacillin sensitization of methicillin-resistant Staphylococcus aureus and methicillin-resistant Staphylococcus pseudintermedius by antisense peptide nucleic acids in vitro” (BMC Microbiology, 2015)

Columns and labels:
[1] = test system: MRSP isolates; settings: cited from earlier work
Source text: In the MRSP strain HH-1, PNAs were effective at much lower concentrations compared to NCTC 13142. This is presumably due to differences in cell wall structures, as passage across the cell wall is considered to be the main limiting factor for PNA efficacy. Another indication of cell wall differences is that scrambled PNAs affected cell viability of HH-1 without affecting transcript levels of mecA or ftsZ (i.e. non-specific toxic effect).

[2] = test system: ftsZ mRNA; assay: ftsZ mRNA level by RT-qPCR; type: cell-based, Staphylococcus aureus (MRSA) NCTC 13142; settings: NCTC 13142, 7.5 μM PNA, no oxacillin, compared to untreated or scrZ-treated cells, n = 3
Experimental: (§1) Growth of cultures in a 96 well plate was monitored by reading the optical density at 550 nm every 5 min, after shaking for 5 s in a microplate reader (Spectramax 340PC, […]). Cultures were harvested when the untreated control culture increased in OD550 ≈ 0.1. Cultures with the same PNA treatment but in different wells across the 96 well plate were pooled for total RNA extraction and DNase I treatment (Ribopure™ Bacteria kit, Life Technologies). RNA was checked for gDNA contamination by qPCR using gyrA primers (Additional file 1: Table S1) and SsoFast™ EvaGreen® Supermix (Bio-Rad) before cDNA synthesis using 50 ng RNA and iScript™ Reverse Transcription Supermix (Bio-Rad). Samples of cDNA were diluted 10-fold and 4 μl used in each qPCR reaction. […]
(§2) Primer pairs for qPCR were designed by Primer3 with a Tm of 60 °C and product sizes of 100–200 bp (Additional file 1: Table S1). […] Primer efficiencies were determined using 10-fold serial dilutions of cDNA (10 pg-1 μg). […]
(§3) Total RNA and cDNA were prepared as described above. Raw Cq values were analysed in qbase + (Biogazelle, Belgium) with user-defined primer efficiencies (Additional file 1: Table S1) and expression stabilities (M value) of each candidate reference gene fabD, gyrA, proC, pta, pyk, rho, sodA, and tpiA were calculated as the average pairwise variation for each gene with all other tested genes. […]

[3] = test system: ftsZ mRNA; assay: ftsZ mRNA level by RT-qPCR; type: cell-based, Staphylococcus pseudintermedius (MRSP) HH-1; settings: HH-1, 2.5 μM PNA, no oxacillin, compared to untreated or scrZ-treated cells, n = 3
Experimental: as §1, §2, §3

[4] = test system: NCTC 13142; assay: Oxacillin sensitization viable count assay (CFU on oxacillin plates); type: cell-based, Staphylococcus aureus (MRSA); settings: 6 h, plated on 16 μg/ml oxacillin, n = 3
Experimental: (§4) The viable count assay is more sensitive than the broth assay and was used to assess the effects of PNAs that performed well in the initial screen described above. In the viable count assay, 5 × 10^5 CFU/ml per well of culture was treated either with 2.5, 5 and 7.5 μM of PNA for NCTC 13142, or 1, 2.5 and 5 μM of PNA for HH-1 in MHB at 35 °C for 6 h. […] Agar plates were incubated at 35 °C for 24 h, and dilutions resulting in 30–300 colonies per plate were used to determine the viable count. Experimental repeats were carried out on separate days, and reductions in CFU of treated cultures were normalized to CFU of the untreated control culture on the day. Statistical analysis of CFU reductions was carried out with the paired Student’s t-Test in Microsoft Excel.

[5] = test system: HH-1; assay: as above; type: cell-based, Staphylococcus pseudintermedius (MRSP)
Experimental: as §4

[6] = test system: NCTC 13142; assay: Growth inhibition assay (OD550 growth curves); type: cell-based, Staphylococcus aureus (MRSA); settings: NCTC 13142, MHB with 6 μg/ml oxacillin, PNA 0–7.5 μM, 35 °C, 6 h, OD550, n = 3
Experimental: (§5) Anti-ftsZ PNAs were tested for effects on growth. Overnight MHB cultures were adjusted to 5 × 10^5 CFU/ml per well of a 96 well plate in MHB supplemented with 6 μg/ml oxacillin as described above. Anti-ftsZ PNA was added to final concentrations of 0, 1, 2.5, 5, 7.5 μM and incubated in a microplate reader (Spectramax 340PC, Molecular Devices) at 35 °C for 6 h. The optical density of the cultures was monitored at 550 nm with readings every 5 min after shaking for 5 s.

[7] = test system: NCTC 13142; assay: Light microscopy of Gram stained cells (cell morphology); type: cell-based, Staphylococcus aureus (MRSA); settings: NCTC 13142, 7.5 μM PNA, 6 h at 35 °C, 1000 × magnification
Experimental: (§6) Bacterial cultures were treated with anti-ftsZ PNA Z46 in broth as described in the viable count assay. After 6 h at 35 °C, cultures were pelleted, washed once in PBS, and re-suspended in 1/10 of original volume of the culture in PBS. Ten microliter aliquots were heat-fixed, Gram stained, and viewed under a light microscope (Olympus BX60) at 1000 × magnification. Images were captured using the Image-Pro Plus 5.0 (MediaCybernetics), and counting of purple and pink cells were carried out using ImageJ 1.44o (National Institute of Health, USA).

[8] = test system: HH-1; assay: Growth inhibition assay (OD550 growth curves); type: cell-based, Staphylococcus pseudintermedius (MRSP); settings: HH-1, MHB with 6 μg/ml oxacillin, PNA 0–7.5 μM, 35 °C, 6 h, OD550, n = 3
Experimental: as §5

[9] = test system: HH-1; assay: Light microscopy of Gram stained cells (cell morphology); type: cell-based, Staphylococcus pseudintermedius (MRSP); settings: HH-1, 2.5 μM PNA, 6 h at 35 °C, 1000 × magnification
Experimental: as §6

Row | Substance | MIC against MRSP isolates [1] | ftsZ mRNA levels, result in words [2] | ftsZ mRNA levels, result in words [3] | CFU reduction of NCTC 13142 ([4]; 7.5 μM PNA, ratio to untreated control, mean) | Sensitization to oxacillin (CFU reduction), result in words ([4]; NCTC 13142, PNA 2.5, 5, 7.5 μM (Z46: 7.5 μM)) | MRSP cells killed by oxacillin ([5]; 2.5 μM PNA, 6 h at 35 °C, plated on MH agar with 16 μg/ml oxacillin, relative to untreated control) | Sensitization to oxacillin (CFU reduction), result in words ([5]; HH-1, A73 and scrA 1, 2.5, 5 μM, Z46 0.5, 1, 2.5 μM, 6 h, plated on 16 μg/ml oxacillin, n = 3) | Concentration that inhibited growth [6] | Cell morphology after Gram stain [7] | Concentration that inhibited growth [8] | Cell morphology after Gram stain [9]
1 | KFFKFFKFFK [(KFF)3K peptide, cell-penetrating peptide (CPP) used as PNA carrier] | 2 to 8 µM | – | – | – | – | – | – | – | – | – | –
2 | KFFKFFKFFK-eg1-TAACATTTAA-NH2 [Z46, anti-ftsZ PNA (−4 to +6) conjugated to the (KFF)3K peptide] | – | reduced | reduced | 87% | significantly sensitized | 95% | significantly sensitized | 7.5 µM | swollen | 2.5 µM | swollen
